Experimental data as given in patent publication US20260276636A1, “METHOD FOR SPECIFIC AND RAPID QUANTIFICATION OF THE TOTAL VIABLE BACTERIAL COUNT IN RAW MILK” (National Institute of Metrology, priority 2023, published 2026).

Key:
B. subtilis = assay: Minimum inhibitory concentration (MIC) assay; type: cell-based, Bacillus subtilis; conditions: 96-well plate, 37° C., 48 h; ATCC 6633
Protocol: (§1) • 1. Culture of bacterial strains. After the four bacterial strains were activated on a nutrient agar plate, a single colony was picked, inoculated to TSB medium (10 g/L peptone, 3 g/L beef extract powder, and 5 g/L sodium chloride), incubated at 37° C. for 6 h to the mid-logarithmic stage, and then centrifuged at 8000 rpm for 5 min to collect the bacterial cells. The collected bacterial cells were suspended in fresh TSB medium at a bacterial suspension concentration of approximately 10^7 cells/mL. • 2. Antibiotics. […] Antibiotics were purchased from Shanghai Yuanye Biotechnology Co., Ltd. An appropriate amount of antibiotics was weighed and dissolved in DSMO to prepare a stock solution of a cell division inhibitor, which was stored in the dark at −20° C. • 3. Minimum inhibitory concentration (MIC) assay. The above four bacterial suspensions were plated in a 96-well plate, to which antibiotics were added at final concentrations of […], and then incubated at 37° C. for 48 h. Bacterial growth was analyzed using a microplate reader, and the smallest concentration of antibiotics that could inhibit the growth of bacteria was defined as the minimum inhibitory concentration. • 4. Evaluation of inhibitory effect on bacterial division. […] After centrifugation at 8000 rpm, the bacterial cells were collected and resuspended in the PBS buffer, and the changes in the number of bacteria in the sample were analyzed using the forward scatter signals on the flow cytometer. • 5. Detection of bacterial viability. […] SYTO9 labeled all bacteria in green and PI labeled dead bacteria in red. The above labeling system was left at room temperature for 30 min in the dark, washed and centrifuged with PBS twice, and the percentages of viable and dead bacteria were analyzed using a flow cytometer. Measurement and analysis were performed using an Apogee A50 flow cytometer. At an excitation wavelength of 488 nm, a flow rate of 3-25 μL/min and a detection time of 10-100 s, the total number of bacteria was analyzed in the green fluorescence channel, and the number of dead bacteria was analyzed in the red fluorescence channel.

E. coli [1] = assay: Minimum inhibitory concentration (MIC) assay; type: cell-based, Escherichia coli; conditions: 96-well plate, 37° C., 48 h; ATCC 10798
Protocol: as §1

S. aureus = assay: Minimum inhibitory concentration (MIC) assay; type: cell-based, Staphylococcus aureus; conditions: 96-well plate, 37° C., 48 h; ATCC 29213
Protocol: as §1

L. lactis [2] = assay: Minimum inhibitory concentration (MIC) assay; type: cell-based, Lactococcus lactis; conditions: 96-well plate, 37° C., 48 h; ATCC 19257
Protocol: as §1

[3] = test system: four species of bacteria (B. subtilis, E. coli, S. aureus, L. lactis); assay: Evaluation of inhibitory effect on bacterial division (flow cytometry); type: cell-based; conditions: 1 μg/mL, 2 h of treatment, compared to blank control; FIG. 7
Protocol: (§2) • 1. Culture of bacterial strains. After the four bacterial strains were activated on a nutrient agar plate, a single colony was picked, inoculated to TSB medium (10 g/L peptone, 3 g/L beef extract powder, and 5 g/L sodium chloride), incubated at 37° C. for 6 h to the mid-logarithmic stage, and then centrifuged at 8000 rpm for 5 min to collect the bacterial cells. The collected bacterial cells were suspended in fresh TSB medium at a bacterial suspension concentration of approximately 10^7 cells/mL. • 2. Antibiotics. […] Bacterial growth was analyzed using a microplate reader, and the smallest concentration of antibiotics that could inhibit the growth of bacteria was defined as the minimum inhibitory concentration. • 4. […] After centrifugation at 8000 rpm, the bacterial cells were collected and resuspended in the PBS buffer, and the changes in the number of bacteria in the sample were analyzed using the forward scatter signals on the flow cytometer. • 5. […] The above labeling system was left at room temperature for 30 min in the dark, washed and centrifuged with PBS twice, and the percentages of viable and dead bacteria were analyzed using a flow cytometer. […]

Staphylococcus aureus [4] = conditions: 2 h
Protocol: as §2

[5] = test system: B. subtilis, E. coli, S. aureus, and L. lactis; assay: Fluorescence microscopy observation of FADA-labeled bacteria; type: cell-based; conditions: 300 μM, 37° C., 6 h; FIG. 1
Protocol: (§3) • 1. Staphylococcus aureus (Deposit number: ATCC 29213), Escherichia coli (Deposit number: ATCC 10798), Lactococcus lactis (Deposit number: ATCC 19257), and Bacillus subtilis (Deposit number: ATCC 6633). The four bacterial strains are the dominant bacteria or the important indicator and pathogenic bacteria in raw milk. • 2. […] Labeling method. […] Fluorescence microscopy observation method. […] 10 μL of bacterial suspension was added onto a slide to prepare an observation sample, which was observed using a 100× oil lens and FITC fluorescence channel. Brightfield images and fluorescence field images were recorded separately. • 5. Flow cytometry. […] The sample not incubated with FADA was used as the negative control.

[6] = test system: four species of bacteria (B. subtilis, E. coli, S. aureus, L. lactis); assay: Labeling efficiency by flow cytometry; type: cell-based
Protocol: as §3, with “Optimization of labeling conditions.” for “The sample not incubated with FADA was used as the negative control.”

[7] = test system: Cow-derived fresh Leukocytes; assay: Specific labeling in mixed samples, fluorescence microscopy; type: cell-based; conditions: 500 μM, 37° C., 6 h, mixed with S. aureus; FIG. 6
Protocol: (§4) • 1. Activation of bacterial strain. After Staphylococcus aureus was activated on a nutrient agar plate, a single colony was picked, inoculated to TSB medium (10 g/L peptone, 3 g/L beef extract powder, and 5 g/L sodium chloride), incubated at 37° C. for 6 h to the mid-logarithmic stage, and then centrifuged at 8000 rpm for 5 min to collect the bacterial cells. The collected bacterial cells were suspended in fresh TSB medium at a bacterial suspension concentration of approximately 10^7 cells/mL. • 2.

Saccharomyces cerevisiae = assay: as above; type: cell-based; conditions: 500 μM, 37° C., 6 h, mixed with S. aureus; FIG. 6
Protocol: as §4

Staphylococcus aureus [8] = assay: as above; type: cell-based; conditions: 500 μM, 37° C., 6 h, mixed with yeast or cow leukocytes; FIG. 6
Protocol: as §4

E. coli [9] = assay: Fluorescent labeling in presence of bacterial cell division inhibitor (flow cytometry); type: cell-based, Escherichia coli; conditions: 500 μM, 2 h, with bacterial cell division inhibitor, FIG. 8
Source text: (§5) • 1. Culture of bacterial strains. […] Fluorescent labeling with FADA. […] Fluorescent labeling with FADAA (Amino FADA).

L. lactis [10] = assay: as above; type: cell-based, Lactococcus lactis; conditions: 500 μM, 2 h, with bacterial cell division inhibitor, FIG. 8
Source text: as §5

Row | Compound | Resistance to quinolone antibiotics (MIC), B. subtilis (B. subtilis) | Resistance to quinolone antibiotics (MIC), E. coli (E. coli [1]) | Resistance to quinolone antibiotics (MIC), S. aureus (S. aureus) | Resistance to quinolone antibiotics (MIC), L. lactis (L. lactis [2]) | Inhibition of cell division of the four species of bacteria [3] | bacterial viability after antibiotic treatment (Staphylococcus aureus [4]) | Fluorescent labeling of bacterial cells under fluorescence microscope [5] | labeling efficiency ([6]; 300 μM, 37° C., 6 h, FIG. 2) | labeling efficiency ([6]; 500 μM, 4 h, FIG. 3) | Fluorescent labeling of somatic cells (cow leukocytes) in mixed sample [7] | Fluorescent labeling of yeast in mixed sample (Saccharomyces cerevisiae) | Fluorescent labeling of S. aureus in mixed samples (Staphylococcus aureus [8]) | labeling effect (labeling efficiency) (E. coli [9]) | labeling effect (labeling efficiency) (L. lactis [10])
1 | O=C(O)c1cn(C2CC2)c2cc(N3CCNCC3)c(F)cc2c1=O [Ciprofloxacin, ciprofloxacin] | 1 µg/mL | 0.5 µg/mL | 1 µg/mL | 1 µg/mL | efficient inhibition of cell division | – | – | – | – | – | – | – | – | –
2 | C[C@H]1COc2c(N3CCN(C)CC3)c(F)cc3c(=O)c(C(=O)O)cn1c23 [Levofloxacin, levofloxacin] | 2 µg/mL | <0.25 µg/mL | <0.25 µg/mL | 0.5 µg/mL | – | – | – | – | – | – | – | – | – | –
3 | COc1c(N2C[C@@H]3CCCN[C@@H]3C2)c(F)cc2c(=O)c(C(=O)O)cn(C3CC3)c12 [Moxifloxacin, moxifloxacin] | 8 µg/mL | 1 µg/mL | 4 µg/mL | 2 µg/mL | – | 88.1% | – | – | – | – | – | – | – | –
4 | CCn1cc(C(=O)O)c(=O)c2ccc(C)nc21 [Nalidixic acid, nalidixic acid] | 128 µg/mL | 4 µg/mL | 64 µg/mL | >256 µg/mL | – | – | – | – | – | – | – | – | – | –
5 | Carboxyfluorescein-labeled amino-D-alanine [FADA] | – | – | – | – | – | – | all cells in the field of view were found fluorescently labeled | > 98.5% | more than 98.5% | not labeled | not labeled | fluorescently labeled | 81.6% | 57.1%
